Test results from patent US20230139171A1 (SITA Information Networking Computing UK Limited, priority 2019, published 2023).

How the values were obtained:
Format in all cases: cell-based
human TLR7 = target: T1, human TLR7 (Homo sapiens, UniProt Q9NYK1); experiment: TLR7 inhibition reporter assay (HEK-Blue cells, SEAP reporter, gardiquimod stimulation); conditions: HEK-Blue cells overexpressing human TLR7, SEAP reporter, gardiquimod 7.5 μM; read-out: TLR7 IC50
T1 construct: host or cells: HEK-Blue cells
T1 sequence (Q9NYK1 27-1049): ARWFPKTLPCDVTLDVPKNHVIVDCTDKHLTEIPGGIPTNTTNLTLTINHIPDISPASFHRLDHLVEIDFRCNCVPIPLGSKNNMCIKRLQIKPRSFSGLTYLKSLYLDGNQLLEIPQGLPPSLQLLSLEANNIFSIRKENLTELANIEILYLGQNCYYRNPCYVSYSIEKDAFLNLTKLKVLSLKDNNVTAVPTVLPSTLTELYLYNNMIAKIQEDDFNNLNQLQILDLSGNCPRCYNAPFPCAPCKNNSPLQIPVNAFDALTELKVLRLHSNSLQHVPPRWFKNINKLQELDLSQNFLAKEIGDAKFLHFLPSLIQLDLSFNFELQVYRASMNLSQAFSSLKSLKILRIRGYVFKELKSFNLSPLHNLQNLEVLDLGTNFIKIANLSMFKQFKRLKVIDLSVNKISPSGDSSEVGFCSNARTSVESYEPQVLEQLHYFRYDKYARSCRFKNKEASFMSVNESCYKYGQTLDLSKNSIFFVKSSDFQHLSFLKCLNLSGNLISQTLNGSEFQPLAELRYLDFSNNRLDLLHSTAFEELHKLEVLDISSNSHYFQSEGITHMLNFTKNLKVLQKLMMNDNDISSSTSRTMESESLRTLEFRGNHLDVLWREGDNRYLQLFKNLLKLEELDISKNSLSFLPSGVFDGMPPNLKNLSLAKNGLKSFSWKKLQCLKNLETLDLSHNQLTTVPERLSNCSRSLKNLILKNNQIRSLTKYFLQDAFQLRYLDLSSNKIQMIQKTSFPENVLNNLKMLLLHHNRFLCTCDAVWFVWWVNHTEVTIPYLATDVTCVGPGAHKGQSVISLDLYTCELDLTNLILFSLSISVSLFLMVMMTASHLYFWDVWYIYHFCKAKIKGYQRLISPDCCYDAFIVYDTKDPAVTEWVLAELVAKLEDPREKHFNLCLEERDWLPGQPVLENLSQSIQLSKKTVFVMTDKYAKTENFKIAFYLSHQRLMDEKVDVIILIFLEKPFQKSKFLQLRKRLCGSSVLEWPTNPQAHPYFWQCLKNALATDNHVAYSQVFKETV
Procedure, shortened: (§1)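 Dose–response from 0.05 nM to 50 μM was run in HEK-Blue human TLR7, TLR8 and TLR9 reporter cells. After 30 min at room temperature with compound, ligand was added (TLR7 gardiquimod 7.5 μM; TLR8 R848 15.9 μM; TLR9 ODN2006 5 nM) and SEAP measured next day, at 22 h.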

human TLR9 = target: T2, human TLR9 (Homo sapiens, UniProt Q9NR96); experiment: TLR9 inhibition reporter assay (HEK-Blue cells, SEAP reporter, ODN2006 stimulation); conditions: HEK-Blue cells overexpressing human TLR9, SEAP reporter, ODN2006 5 nM
T2 construct: host or cells: HEK-Blue cells
T2 sequence (Q9NR96 26-1032): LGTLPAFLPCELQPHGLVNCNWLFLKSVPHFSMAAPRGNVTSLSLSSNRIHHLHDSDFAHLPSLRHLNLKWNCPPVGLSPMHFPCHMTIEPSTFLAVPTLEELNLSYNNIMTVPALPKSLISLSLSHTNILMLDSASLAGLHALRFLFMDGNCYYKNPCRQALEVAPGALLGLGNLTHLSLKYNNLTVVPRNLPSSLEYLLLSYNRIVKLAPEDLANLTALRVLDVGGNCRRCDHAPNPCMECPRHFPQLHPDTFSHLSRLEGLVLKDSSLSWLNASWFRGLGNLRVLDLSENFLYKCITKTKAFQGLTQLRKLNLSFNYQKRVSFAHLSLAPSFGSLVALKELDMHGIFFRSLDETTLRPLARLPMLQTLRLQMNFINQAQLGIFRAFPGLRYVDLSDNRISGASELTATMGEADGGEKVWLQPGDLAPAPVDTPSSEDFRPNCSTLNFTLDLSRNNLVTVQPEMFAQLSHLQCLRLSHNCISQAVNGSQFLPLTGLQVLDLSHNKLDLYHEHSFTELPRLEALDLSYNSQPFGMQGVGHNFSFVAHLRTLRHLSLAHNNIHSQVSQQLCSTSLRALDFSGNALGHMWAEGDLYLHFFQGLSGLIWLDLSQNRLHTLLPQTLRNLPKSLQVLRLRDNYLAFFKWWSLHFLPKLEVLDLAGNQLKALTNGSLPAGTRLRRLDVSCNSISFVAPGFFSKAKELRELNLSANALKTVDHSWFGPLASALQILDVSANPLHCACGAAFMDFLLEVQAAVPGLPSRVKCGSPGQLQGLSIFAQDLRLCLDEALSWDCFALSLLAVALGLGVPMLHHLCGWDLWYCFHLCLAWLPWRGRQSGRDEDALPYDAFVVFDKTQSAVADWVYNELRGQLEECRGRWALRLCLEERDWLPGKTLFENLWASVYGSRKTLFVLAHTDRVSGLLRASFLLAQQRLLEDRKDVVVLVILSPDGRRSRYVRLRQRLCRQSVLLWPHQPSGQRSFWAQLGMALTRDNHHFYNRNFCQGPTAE
Procedure, shortened: as §1

human TLR8 = target: T3, human TLR8 (Homo sapiens, UniProt Q9NR97); experiment: TLR8 inhibition reporter assay (HEK-Blue cells, SEAP reporter, R848 stimulation); conditions: HEK-Blue cells overexpressing human TLR8, SEAP reporter, R848 15.9 μM; read-out: TLR8 IC50
T3 construct: host or cells: HEK-Blue cells
T3 sequence (Q9NR97 27-1041): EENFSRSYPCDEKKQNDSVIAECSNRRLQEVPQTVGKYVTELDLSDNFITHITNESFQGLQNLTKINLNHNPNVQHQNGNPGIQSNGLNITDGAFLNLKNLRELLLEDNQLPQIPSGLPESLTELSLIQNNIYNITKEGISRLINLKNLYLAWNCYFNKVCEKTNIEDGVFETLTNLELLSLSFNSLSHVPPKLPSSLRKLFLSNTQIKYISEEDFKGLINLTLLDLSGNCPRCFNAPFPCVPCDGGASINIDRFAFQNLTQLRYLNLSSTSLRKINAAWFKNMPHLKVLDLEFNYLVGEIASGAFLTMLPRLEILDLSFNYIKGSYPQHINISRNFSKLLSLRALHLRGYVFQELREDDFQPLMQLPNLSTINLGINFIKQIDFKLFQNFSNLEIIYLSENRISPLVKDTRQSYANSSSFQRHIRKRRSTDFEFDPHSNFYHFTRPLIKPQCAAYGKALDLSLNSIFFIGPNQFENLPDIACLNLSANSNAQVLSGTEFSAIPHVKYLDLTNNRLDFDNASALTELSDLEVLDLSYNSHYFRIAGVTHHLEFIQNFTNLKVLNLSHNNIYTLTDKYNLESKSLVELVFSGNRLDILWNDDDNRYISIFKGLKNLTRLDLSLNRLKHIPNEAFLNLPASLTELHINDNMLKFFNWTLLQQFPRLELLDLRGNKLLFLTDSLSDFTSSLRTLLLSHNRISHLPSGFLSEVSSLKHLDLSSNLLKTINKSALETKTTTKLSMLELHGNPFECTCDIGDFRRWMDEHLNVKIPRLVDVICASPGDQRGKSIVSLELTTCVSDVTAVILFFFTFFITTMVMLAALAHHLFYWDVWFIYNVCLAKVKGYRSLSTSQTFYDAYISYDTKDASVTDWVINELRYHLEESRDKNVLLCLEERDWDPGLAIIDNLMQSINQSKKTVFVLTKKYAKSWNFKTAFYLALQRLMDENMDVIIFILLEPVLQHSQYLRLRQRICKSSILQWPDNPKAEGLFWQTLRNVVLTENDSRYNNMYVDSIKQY
Procedure, shortened: as §1

| SMILES | IC50 (human TLR7) [nM] | IC50 (human TLR9) [nM] | IC50 (human TLR8) [nM] |
| --- | --- | --- | --- |
| Cc1c(-c2[nH]c3sc(N4CCC(N(C)C(C)C)CC4)nc3c2C(C)C)cn2ncnc2c1C [Example 292, 1-(5-(7,8-dimethyl-[1,2,4]triazolo[1,5-a]pyridin-6-yl)-6-isopropyl-4H-pyrrolo[3,2-d]thiazol-2-yl)-N-isopropyl-N-methylpiperidin-4-amine] | 3.18 | 7520 | 0.46 |
| Cc1c(-c2[nH]c3sc(N4CCC(NC5CCC5)CC4)nc3c2C(C)C)cn2ncnc2c1C [Example 293, N-cyclobutyl-1-(5-(7,8-dimethyl-[1,2,4]triazolo[1,5-a]pyridin-6-yl)-6-isopropyl-4H-pyrrolo[3,2-d]thiazol-2-yl) piperidin-4-amine] | 2.98 | 6650 | 0.38 |
| Cc1c(-c2[nH]c3sc(N4CCC(NCC5(C)COC5)CC4)nc3c2C(C)C)cn2ncnc2c1C [Example 295, 1-(5-(7,8-dimethyl-[1,2,4]triazolo[1,5-a]pyridin-6-yl)-6-isopropyl-4H-pyrrolo[3,2-d]thiazol-2-yl)-N-((3-methyloxetan-3-yl)methyl) piperidin-4-amine] | 4.94 | 9710 | 0.28 |
| Cc1c(-c2[nH]c3sc(N4CCC(NC5COC5)CC4)nc3c2C(C)C)cn2ncnc2c1C [Example 296, 1-(5-(7,8-dimethyl-[1,2,4]triazolo[1,5-a]pyridin-6-yl)-6-isopropyl-4H-pyrrolo[3,2-d]thiazol-2-yl)-N-(oxetan-3-yl)piperidin-4-amine] | 3.45 | 33800 | 0.73 |
| CCN(C)C1CCN(c2nc3c(C(C)C)c(-c4cn5ncnc5c(C)c4C)[nH]c3s2)CC1 [Example 298, 1-(5-(7,8-dimethyl-[1,2,4]triazolo[1,5-a]pyridin-6-yl)-6-isopropyl-4H-pyrrolo[3,2-d]thiazol-2-yl)-N-ethyl-N-methylpiperidin-4-amine] | 1.56 | 7410 | 0.43 |
| Cc1c(-c2[nH]c3sc(N4CCC(N)CC4)nc3c2C(C)C)cn2ncnc2c1C [Example 299, 1-(5-(7,8-dimethyl-[1,2,4]triazolo[1,5-a]pyridin-6-yl)-6-isopropyl-4H-pyrrolo[3,2-d]thiazol-2-yl)piperidin-4-amine] | 1.42 | 12700 | 0.72 |
| Cc1c(-c2[nH]c3sc(N4CC5(CN(CC(C)C)C5)C4)nc3c2C(C)C)cn2ncnc2c1C [Example 300, 5-(7,8-dimethyl-[1,2,4]triazolo[1,5-a]pyridin-6-yl)-2-(6-isobutyl-2,6-diazaspiro[3.3]heptan-2-yl)-6-isopropyl-4H-pyrrolo[3,2-d]thiazole] | 10.7 | 10100 | 3.24 |

Continued, values first:

| IC50 (human TLR7) [nM] | IC50 (human TLR9) [nM] | IC50 (human TLR8) [nM] | SMILES |
| --- | --- | --- | --- |
| 7.65 | 16800 | 0.39 | Cc1c(-c2[nH]c3sc(N4CCC(NCC(C)(C)O)CC4)nc3c2C(C)C)cn2ncnc2c1C [Example 291, 1-((1-(5-(7,8-dimethyl-[1,2,4]triazolo[1,5-a]pyridin-6-yl)-6-isopropyl-4H-pyrrolo[3,2-d]thiazol-2-yl)piperidin-4-yl)amino)-2-methylpropan-2-ol] |
| 7.97 | 8990 | 0.42 | COC(C)(C)CNC1CCN(c2nc3c(C(C)C)c(-c4cn5ncnc5c(C)c4C)[nH]c3s2)CC1 [Example 294, 1-(5-(7,8-dimethyl-[1,2,4]triazolo[1,5-a]pyridin-6-yl)-6-isopropyl-4H-pyrrolo[3,2-d]thiazol-2-yl)-N-(2-methoxy-2-methylpropyl)piperidin-4-amine] |
| 2.25 | 8910 | 0.27 | Cc1c(-c2[nH]c3sc(N4CCC(NC(C)C)CC4)nc3c2C(C)C)cn2ncnc2c1C [Example 297, 1-(5-(7,8-dimethyl-[1,2,4]triazolo[1,5-a]pyridin-6-yl)-6-isopropyl-4H-pyrrolo[3,2-d]thiazol-2-yl)-N-isopropylpiperidin-4-amine] |
